22 compounds from US8445501B2, “Substituted 7-carboxamido-pyrrolo[3,2-d]pyrimidines” (Takeda GmbH, priority 2008, dated 2013) can be followed below.

For this test, the target named is T1, human PDE5 (Homo sapiens, UniProt O76074).
T1 construct: from tissue; host or cells: platelets from fresh blood of human donors (lysate, 10,000 g supernatant)
In words: Inhibition of the type 5 phosphodiesterase (PDE5) activity, modified SPA test with platelet lysate. Type of test: biochemical. The following applies: PDE5 from human platelet lysate, 0.5 μM cGMP. The procedure:
Method for Measuring Inhibition of the Type 5 Phosphodiesterase (PDE5) Activity:
As a source for human PDE5, platelets are used. For that purpose, 150 ml fresh blood from human donors anticoagulated with citrate [final concentration 0.3% (w/v)] is centrifuged at 200 g for 10 min to obtain the so-called platelet-rich-plasma (PRP) as a supernatant. 1/10 volume of ACD solution (85 mM Na3-citrate, 111 mM D-glucose, 71 mM citric acid, pH 4.4) is added to 9/10 volume of PRP. After centrifugation (1,400 g, 10 min) the cell pellet is resuspended in 3 ml homogenization buffer (NaCl 140 mM, KCl 3.8 mM, EGTA (ethylene glycol tetraacetic acid) 1 mM, MgCl2 1 mM, Tris-HCl 20 mM, beta-mercaptoethanol 1 mM, pH 8.2) plus protease-inhibitor mix giving rise to the final concentrations of 0.5 mM Pefablock (Roche), 10 μM Leupeptin, 5 μM Trypsininhibitor, 2 mM Benzamidin and 10 μM Pepstatin A. The suspension is sonified and thereafter centrifuged for 15 min at 10,000 g. The resulting supernatant (platelet lysate) is used for enzymatic testings.
PDE5A1 activity is inhibited by the compounds of the invention in a modified SPA (scintillation proximity assay) test, supplied by Amersham Biosciences (see procedural instructions “phosphodiesterase [3H]cAMP SPA enzyme assay, code TRKQ 7090”), carried out in 96-well microtitre plates (MTP's). The test volume is 100 μl and contains 20 mM Tris buffer (pH 7.4), 0.1 mg of BSA (bovine serum albumin)/ml, 5 mM Mg^2+, 1 μM motapizone, 10 nM PDE2 inhibitor 2-(3,4-dimethoxybenzyl)-7-[(1R,2R)-2-hydroxy-1-(2-phenylethyl)propyl]-5-methylimidazo[5,1-f][1,2,4]triazin-4(3H)-one, 0.5 μM cGMP (cyclic guanosine monophosphate) (including about 50,000 cpm of [3H]cGMP as a tracer), 1 μl of the respective compound dilution in dimethylsulfoxide (DMSO) and sufficient PDE5-containing platelet lysat (10,000×g supernatant, see above) to ensure that 10-20 wt % of the cGMP is converted under the said experimental conditions. […] After a preincubation of 5 min at 37° C., the reaction is started by adding the substrate (cGMP) and the assay is incubated for a further 15 min; after that, it is stopped by adding SPA beads (50 μl). In accordance with the manufacturer's instructions, the SPA beads had previously been resuspended in water, but are then diluted 1:3 (v/v) in water; the diluted solution also contains 3 mM […] (IBMX) to ensure a complete PDE activity stop. After the beads have been sedimented (>30 min), the MTP's are analyzed in commercially available luminescence detection de-vices. The corresponding IC50 values of the compounds for the inhibition of PDE activity are deter-mined from the concentration-effect curves by means of non-linear regression.
Turning to “4-(2-Cyclopropylmethoxy-4-fluoro-5-methoxy-phenyl)-5H-pyrrolo[3,2-d]pyrimidine-7-carboxylic acid ((R)-1-acetyl-pyrrolidin-3-yl)-amide [Example 103]”, the “-log IC50 (mol/l)” value is listed as 9.33.
The same measure, in the same setting: to “4-(5-Cyclopropylmethoxy-benzo[1,3]dioxol-4-yl)-5H-pyrrolo[3,2-d]pyrimidine-7-carboxylic acid ((R)-1-propionyl-piperidin-3-yl)-amide [Example 47]” belongs 9.64.
Same read-out and setting: for “4-({1-[4-(5-Cyclopropylmethoxy-benzo[1,3]dioxol-4-yl)-5H-pyrrolo[3,2-d]pyrimidin-7-yl]-methanoyl}-amino)-piperidine-1-carboxylic acid ethyl ester [Example 2]” the value was 10.01.
In turn, `CCC(=O)N1CCC(NC(=O)c2c[nH]c3c(-c4c(OCC5CC5)ccc5c4OCO5)ncnc23)CC1` [Example 1, 4-(5-Cyclopropylmethoxy-1,3-benzodioxol-4-yl)-5H-pyrrolo[3,2-d]pyrimidine-7-carboxylic acid (1-propionyl-piperidin-4-yl)-amide] showed an IC50 of 0.0776 nM.
`COCC(=O)N1CCC(NC(=O)c2c[nH]c3c(-c4c(OCC5CC5)ccc5c4OCO5)ncnc23)CC1` [Example 3, 4-(5-Cyclopropylmethoxy-benzo[1,3]dioxol-4-yl)-5H-pyrrolo[3,2-d]pyrimidine-7-carboxylic acid [1-(2-methoxy-acetyl)piperidin-4-yl]-amide]: the IC50 is 0.398 nM. Compared with the last compound, the IC50 is about 5.1-fold higher.
Same read-out and setting: to `CC(=O)N[C@H]1CC[C@H](NC(=O)c2c[nH]c3c(-c4c(OCC5CC5)ccc5c4OCO5)ncnc23)CC1` [Example 4, trans-4-(5-Cyclopropylmethoxy-benzo[1,3]dioxol-4-yl)-5H-pyrrolo[3,2-d]pyrimidine-7-carboxylic acid (4-acetylamino-cyclohexyl)-amide] belongs 0.162 nM; to `O=C(N[C@H]1CC[C@H](NC(=O)C2CC2)CC1)c1c[nH]c2c(-c3c(OCC4CC4)ccc4c3OCO4)ncnc12` [Example 5, trans-4-(5-Cyclopropylmethoxy-benzo[1,3]dioxol-4-yl)-5H-pyrrolo[3,2-d]pyrimidine-7-carboxylic acid {4-[(1-cyclopropyl-methanoyl)-amino]-cyclohexyl}-amide], 0.123 nM.
Turning to `CCOC(=O)N[C@H]1CC[C@H](NC(=O)c2c[nH]c3c(-c4c(OCC5CC5)ccc5c4OCO5)ncnc23)CC1` [Example 6, trans-[4-({1-[4-(5-Cyclopropylmethoxy-benzo[1,3]dioxol-4-yl)-5H-pyrrolo[3,2-d]pyrimidin-7-yl]-methanoyl}-amino)-cyclohexyl]-carbamic acid ethyl ester], the IC50 is 0.0851 nM. The IC50 values of the last two compounds are within 1.5-fold of each other.
The compound `CC(=O)N[C@H]1CC[C@@H](NC(=O)c2c[nH]c3c(-c4c(OCC5CC5)ccc5c4OCO5)ncnc23)CC1` [Example 7, cis-4-(5-Cyclopropylmethoxy-benzo[1,3]dioxol-4-yl)-5H-pyrrolo[3,2-d]pyrimidine-7-carboxylic acid (4-acetylamino-cyclohexyl)-amide] gave an IC50 of 0.214 nM. Compared with the last compound, the IC50 is about 2.5-fold higher.
Same read-out and setting: to `O=C(N[C@H]1CC[C@@H](NC(=O)C2CC2)CC1)c1c[nH]c2c(-c3c(OCC4CC4)ccc4c3OCO4)ncnc12` [Example 8, cis-4-(5-Cyclopropylmethoxy-benzo[1,3]dioxol-4-yl)-5H-pyrrolo[3,2-d]pyrimidine-7-carboxylic acid {4-[(1-cyclopropyl-methanoyl)-amino]-cyclohexyl}-amide] belongs 0.224 nM; to `COCC(=O)N[C@H]1CC[C@@H](NC(=O)c2c[nH]c3c(-c4c(OCC5CC5)ccc5c4OCO5)ncnc23)CC1` [Example 9, cis-4-(5-Cyclopropylmethoxy-benzo[1,3]dioxol-4-yl)-5H-pyrrolo[3,2-d]pyrimidine-7-carboxylic acid [4-(2-methoxy-ethanoylamino)-cyclohexyl]-amide], 1.15 nM.
Take `CCOC(=O)N[C@H]1CC[C@@H](NC(=O)c2c[nH]c3c(-c4c(OCC5CC5)ccc5c4OCO5)ncnc23)CC1` [Example 10, cis-[4-({1-[4-(5-Cyclopropylmethoxy-benzo[1,3]dioxol-4-yl)-5H-pyrrolo[3,2-d]pyrimidin-7-yl]-methanoyl}-amino)-cyclohexyl]-carbamic acid ethyl ester]: the IC50 was 0.2 nM.
The compound `CC(=O)N1CCC(NC(=O)c2c[nH]c3c(-c4c(OCC5CC5)ccc5c4OCO5)ncnc23)CC1` [Example 11, 4-(5-Cyclopropylmethoxy-benzo[1,3]dioxol-4-yl)-5H-pyrrolo[3,2-d]pyrimidine-7-carboxylic acid (1-acetyl-piperidin-4-yl)-amide] had an IC50 of 0.145 nM. This IC50 and that of the compound before are within 1.5-fold of each other.
On the same count and under the same terms, for `O=C(NC1CCN(C(=O)C2CC2)CC1)c1c[nH]c2c(-c3c(OCC4CC4)ccc4c3OCO4)ncnc12` [Example 12, 4-(5-Cyclopropylmethoxy-benzo[1,3]dioxol-4-yl)-5H-pyrrolo[3,2-d]pyrimidine-7-carboxylic acid [1-(1-cyclopropyl-methanoyl)-piperidin-4-yl]amide] the value was 0.0692 nM.
In turn, `COCC(=O)N1CC[C@@H](NC(=O)c2c[nH]c3c(-c4c(OCC5CC5)ccc5c4OCO5)ncnc23)C1` [Example 13, 4-(5-Cyclopropylmethoxy-benzo[1,3]dioxol-4-yl)-5H-pyrrolo[3,2-d]pyrimidine-7-carboxylic acid [(R)-1-(2-methoxy-acetyl)pyrrolidin-3-yl]-amide] gave a 50% inhibitory concentration (IC50) of 0.776 nM. This IC50 is about 11-fold higher than that of the compound before.
On the same count and under the same terms, for `O=CN1CC[C@@H](NC(=O)c2c[nH]c3c(-c4c(OCC5CC5)ccc5c4OCO5)ncnc23)C1` [Example 14, 4-(5-Cyclopropylmethoxy-benzo[1,3]dioxol-4-yl)-5H-pyrrolo[3,2-d]pyrimidine-7-carboxylic acid ((R)-1-formyl-pyrrolidin-3-yl)-amide] the value was 1.38 nM; for `CC(=O)N1CC[C@@H](NC(=O)c2c[nH]c3c(-c4c(OCC5CC5)ccc5c4OCO5)ncnc23)C1` [Example 15, 4-(5-Cyclopropylmethoxy-benzo[1,3]dioxol-4-yl)-5H-pyrrolo[3,2-d]pyrimidine-7-carboxylic acid ((R)-1-acetyl-pyrrolidin-3-yl)-amide], 1 nM; for `O=C(N[C@@H]1CCN(C(=O)C2CC2)C1)c1c[nH]c2c(-c3c(OCC4CC4)ccc4c3OCO4)ncnc12` [Example 16, 4-(5-Cyclopropylmethoxy-benzo[1,3]dioxol-4-yl)-5H-pyrrolo[3,2-d]pyrimidine-7-carboxylic acid [(R)-1-(1-cyclopropyl-methanoyl)-pyrrolidin-3-yl]amide], 0.389 nM.
For `CCOC(=O)N1CC[C@@H](NC(=O)c2c[nH]c3c(-c4c(OCC5CC5)ccc5c4OCO5)ncnc23)C1` [Example 17, (R)-3-({1-[4-(5-Cyclopropylmethoxy-benzo[1,3]dioxol-4-yl)-5H-pyrrolo[3,2-d]pyrimidin-7-yl]-methanoyl}-amino)-pyrrolidine-1-carboxylic acid ethyl ester], the midpoint of inhibition, the IC50, lay at 0.339 nM.
`O=CN1CC[C@H](NC(=O)c2c[nH]c3c(-c4c(OCC5CC5)ccc5c4OCO5)ncnc23)C1` [Example 18, 4-(5-Cyclopropylmethoxy-benzo[1,3]dioxol-4-yl)-5H-pyrrolo[3,2-d]pyrimidine-7-carboxylic acid ((S)-1-formyl-pyrrolidin-3-yl)-amide] showed a half-inhibitory concentration (IC50) of 1.82 nM.
Still for that read-out and setting: to `CC(=O)N1CC[C@H](NC(=O)c2c[nH]c3c(-c4c(OCC5CC5)ccc5c4OCO5)ncnc23)C1` [Example 19, 4-(5-Cyclopropylmethoxy-benzo[1,3]dioxol-4-yl)-5H-pyrrolo[3,2-d]pyrimidine-7-carboxylic acid ((S)-1-acetyl-pyrrolidin-3-yl)-amide] belongs 2.45 nM; to `O=C(N[C@H]1CCN(C(=O)C2CC2)C1)c1c[nH]c2c(-c3c(OCC4CC4)ccc4c3OCO4)ncnc12` [Example 20, 4-(5-Cyclopropylmethoxy-benzo[1,3]dioxol-4-yl)-5H-pyrrolo[3,2-d]pyrimidine-7-carboxylic acid [(S)-1-(1-cyclopropyl-methanoyl)-pyrrolidin-3-yl]amide], 0.537 nM.
